# Laboratory results as given in PubChem BioAssay AID256 (DTP/NCI, 2004).
# Values joined by “and” are separate entries in the source; they are usually repeats but may differ in a detail not shown here. Equal values may be shown once. Inconclusive results and toxic doses are left out.
# System: CD2F1 mice, L1210 leukemia ip, survival T/C
# Test: NCI In Vivo Anticancer Drug Screen. Data for tumor model L1210 Leukemia (intraperitoneal) in CD2F1 (CDF1) mice
# Settings: higher = longer survival
# How it was run: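 Mice carrying a transplanted tumor received test compound or vehicle alone. The value is the measurement in the treated group divided by that in the vehicle-treated control group.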
# [1] = endpoint: mean survival time, dose: 100.0 mg/kg/injection, schedule: Q04DX003 (ip), vehicle: saline
# [2] = endpoint: mean survival time, dose: 100.0 mg/kg/injection, schedule: Q01DX001 (ip), vehicle: saline with Tween-80
# [3] = endpoint: mean survival time, dose: 200.0 mg/kg/injection, schedule: Q01DX001 (ip), vehicle: saline with Tween-80
# [4] = endpoint: mean survival time, dose: 400.0 mg/kg/injection, schedule: Q01DX001 (ip), vehicle: saline with Tween-80
# [5] = endpoint: mean survival time, dose: 100.0 mg/kg/injection, schedule: Q01DX009 (ip), vehicle: saline with Tween-80
# [6] = endpoint: mean survival time, dose: 200.0 mg/kg/injection, schedule: Q01DX009 (ip), vehicle: saline with Tween-80
# [7] = endpoint: mean survival time, dose: 400.0 mg/kg/injection, schedule: Q01DX009 (ip), vehicle: saline with Tween-80
smiles,measurement,setting,value
CCC[CH2][Sn]1([CH2]CCC)[O]C(=O)c2c(Cl)c(Cl)c(Cl)c(Cl)c2C(=O)[O]1,T/C,"endpoint: mean survival time, dose: 5.0 mg/kg/injection, schedule: Q01DX001 (ip), vehicle: saline",101 % of control
same,T/C,"endpoint: mean survival time, dose: 10.0 mg/kg/injection, schedule: Q01DX001 (ip), vehicle: saline",101 % of control
same,T/C,"endpoint: mean survival time, dose: 20.0 mg/kg/injection, schedule: Q01DX001 (ip), vehicle: saline",109 % of control
C#CCCOC(=O)Nc1ccccc1,T/C,"endpoint: mean survival time, dose: 100.0 mg/kg/injection, schedule: Q04DX003 (ip), vehicle: Klucel (hydroxypropylcellulose) (HPC)",97 % of control
same,T/C,"endpoint: mean survival time, dose: 200.0 mg/kg/injection, schedule: Q04DX003 (ip), vehicle: Klucel (hydroxypropylcellulose) (HPC)",100 % of control
same,T/C,"endpoint: mean survival time, dose: 400.0 mg/kg/injection, schedule: Q04DX003 (ip), vehicle: Klucel (hydroxypropylcellulose) (HPC)",110 % of control
O=NN(CCCl)C(=O)/N=N/C(=O)N(CCCl)N=O,T/C,"endpoint: median survival time, dose: 3.12 mg/kg/injection, schedule: Q01DX001 (ip), vehicle: water",100 % of control
same,T/C,"endpoint: median survival time, dose: 6.25 mg/kg/injection, schedule: Q01DX001 (ip), vehicle: water",98 % of control
same,T/C,"endpoint: median survival time, dose: 12.5 mg/kg/injection, schedule: Q01DX001 (ip), vehicle: water",113 % of control
same,T/C,"endpoint: median survival time, dose: 25.0 mg/kg/injection, schedule: Q01DX001 (ip), vehicle: water",103 % of control and 105 % of control
same,T/C,"endpoint: median survival time, dose: 50.0 mg/kg/injection, schedule: Q01DX001 (ip), vehicle: water",98 % of control and 112 % of control
same,T/C,"endpoint: median survival time, dose: 100.0 mg/kg/injection, schedule: Q01DX001 (ip), vehicle: water",115 % of control (2×) and 122 % of control
O=c1[nH]cc(Cc2cccc(OCc3ccccc3)c2)c(=O)[nH]1,T/C,"endpoint: mean survival time, dose: 75.0 mg/kg/injection, schedule: Q01DX001 (ip), vehicle: saline with Tween-80",97 % of control
same,T/C,"endpoint: mean survival time, dose: 150.0 mg/kg/injection, schedule: Q01DX001 (ip), vehicle: saline with Tween-80",98 % of control
same,T/C,"endpoint: mean survival time, dose: 300.0 mg/kg/injection, schedule: Q01DX001 (ip), vehicle: saline with Tween-80",89 % of control
CCOC(OCC)c1cc[n+](CCc2ccc(OC)c(OC)c2)cc1,T/C,[1],96 % of control
CC12CCC(=O)CC1CCC1C2CCC2(C)C(C(=O)O)CCC12 (stereo not given),T/C,[2],96 % of control
same,T/C,[3],102 % of control
same,T/C,[4],96 % of control
CN(C)/C(=C\C(=O)c1ccccc1)c1ccccc1,T/C,"endpoint: mean survival time, dose: 25.0 mg/kg/injection, schedule: Q04DX003 (ip), vehicle: saline with Tween-80",104 % of control
same,T/C,"endpoint: mean survival time, dose: 50.0 mg/kg/injection, schedule: Q04DX003 (ip), vehicle: saline with Tween-80",108 % of control
same,T/C,"endpoint: mean survival time, dose: 100.0 mg/kg/injection, schedule: Q04DX003 (ip), vehicle: saline with Tween-80",93 % of control
COc1nc(NC2OCC(O)C(O)C2O)cc(=O)n1C (stereo not given),T/C,"endpoint: median survival time, dose: 12.5 mg/kg/injection, schedule: Q01DX005 (ip), vehicle: saline",102 % of control
same,T/C,"endpoint: median survival time, dose: 25.0 mg/kg/injection, schedule: Q01DX005 (ip), vehicle: saline",101 % of control
same,T/C,"endpoint: median survival time, dose: 50.0 mg/kg/injection, schedule: Q01DX005 (ip), vehicle: saline",100 % of control
same,T/C,"endpoint: median survival time, dose: 100.0 mg/kg/injection, schedule: Q01DX005 (ip), vehicle: saline",105 % of control
same,T/C,"endpoint: median survival time, dose: 200.0 mg/kg/injection, schedule: Q01DX005 (ip), vehicle: saline",98 % of control
O=C(Nc1ccc(Cl)c(C(F)(F)F)c1)Nc1cc(C(F)(F)F)ccc1Sc1cc(Cl)c(Cl)cc1S(=O)(=O)O,T/C,[5],101 % of control
CCN(C)N=Nc1ccc(NC(N)=O)cc1,T/C,"endpoint: mean survival time, dose: 4.68 mg/kg/injection, schedule: Q01DX009 (ip), vehicle: Klucel (hydroxypropylcellulose) (HPC)",109 % of control and 112 % of control
same,T/C,"endpoint: mean survival time, dose: 9.37 mg/kg/injection, schedule: Q01DX009 (ip), vehicle: Klucel (hydroxypropylcellulose) (HPC)",119 % of control and 108 % of control
same,T/C,"endpoint: mean survival time, dose: 18.75 mg/kg/injection, schedule: Q01DX009 (ip), vehicle: Klucel (hydroxypropylcellulose) (HPC)",124 % of control
same,T/C,"endpoint: mean survival time, dose: 37.5 mg/kg/injection, schedule: Q01DX009 (ip), vehicle: Klucel (hydroxypropylcellulose) (HPC)",152 % of control
COc1ccc(/C=N/N=C(/N)N[N+](=O)[O-])cc1,T/C,"endpoint: mean survival time, dose: 100.0 mg/kg/injection, schedule: Q01DX001 (ip), vehicle: Klucel (hydroxypropylcellulose) (HPC)",94 % of control
same,T/C,"endpoint: mean survival time, dose: 200.0 mg/kg/injection, schedule: Q01DX001 (ip), vehicle: Klucel (hydroxypropylcellulose) (HPC)",97 % of control
same,T/C,"endpoint: mean survival time, dose: 400.0 mg/kg/injection, schedule: Q01DX001 (ip), vehicle: Klucel (hydroxypropylcellulose) (HPC)",94 % of control
CNC(=O)OCc1c(COC(=O)NC)c(-c2ccccc2)n(C)c1-c1ccccc1,T/C,"endpoint: mean survival time, dose: 3.12 mg/kg/injection, schedule: Q01DX009 (ip), vehicle: distilled water + Tween-80",111 % of control
same,T/C,"endpoint: mean survival time, dose: 6.25 mg/kg/injection, schedule: Q01DX009 (ip), vehicle: distilled water + Tween-80",111 % of control
same,T/C,"endpoint: mean survival time, dose: 50.0 mg/kg/injection, schedule: Q01DX009 (ip), vehicle: distilled water + Tween-80",111 % of control
Cc1cc(C)nc(NS(=O)(=O)c2ccc(NCN3C(=O)c4ccccc4C3=O)cc2)n1,T/C,[2],101 % of control
same,T/C,[5],96 % of control
same,T/C,[3],107 % of control
same,T/C,[6],94 % of control
same,T/C,[4],107 % of control
same,T/C,[7],90 % of control
CC1CC(=O)C2CC(Cl)CCC2(C)C1C (stereo not given),T/C,"endpoint: mean survival time, dose: 25.0 mg/kg/injection, schedule: Q01DX009 (ip), vehicle: saline with Tween-80",97 % of control
same,T/C,"endpoint: mean survival time, dose: 50.0 mg/kg/injection, schedule: Q01DX009 (ip), vehicle: saline with Tween-80",90 % of control
same,T/C,[5],94 % of control
O=C(O)CC(=O)O.[NH-]CC(O)CN(Cc1ccccc1)CC(O)CN.[Pt+2] (stereo not given),T/C,"endpoint: median survival time, dose: 2.5 mg/kg/injection, schedule: Q04DX003 (ip), vehicle: water",102 % of control
same,T/C,"endpoint: median survival time, dose: 5.0 mg/kg/injection, schedule: Q04DX003 (ip), vehicle: water",101 % of control
same,T/C,"endpoint: median survival time, dose: 10.0 mg/kg/injection, schedule: Q04DX003 (ip), vehicle: water",108 % of control
same,T/C,"endpoint: median survival time, dose: 12.5 mg/kg/injection, schedule: Q04DX003 (ip), vehicle: water",104 % of control
same,T/C,"endpoint: median survival time, dose: 20.0 mg/kg/injection, schedule: Q04DX003 (ip), vehicle: water",111 % of control
same,T/C,"endpoint: median survival time, dose: 25.0 mg/kg/injection, schedule: Q04DX003 (ip), vehicle: water",102 % of control
same,T/C,"endpoint: median survival time, dose: 50.0 mg/kg/injection, schedule: Q04DX003 (ip), vehicle: water",104 % of control
same,T/C,"endpoint: median survival time, dose: 100.0 mg/kg/injection, schedule: Q04DX003 (ip), vehicle: water",108 % of control
CC(=O)CC(C)=O,T/C,[1],103 % of control
same,T/C,"endpoint: mean survival time, dose: 200.0 mg/kg/injection, schedule: Q04DX003 (ip), vehicle: saline",94 % of control
same,T/C,"endpoint: mean survival time, dose: 400.0 mg/kg/injection, schedule: Q04DX003 (ip), vehicle: saline",100 % of control
O=C(O/N=C(\c1ccccc1)c1cccs1)N(c1ccccc1)c1ccccc1,T/C,"endpoint: mean survival time, dose: 100.0 mg/kg/injection, schedule: Q01DX001 (ip), vehicle: other",92 % of control
same,T/C,"endpoint: mean survival time, dose: 200.0 mg/kg/injection, schedule: Q01DX001 (ip), vehicle: other",98 % of control
same,T/C,"endpoint: mean survival time, dose: 400.0 mg/kg/injection, schedule: Q01DX001 (ip), vehicle: other",92 % of control
Fc1c(F)c(F)c([Si](c2c(F)c(F)c(F)c(F)c2F)(c2c(F)c(F)c(F)c(F)c2F)c2c(F)c(F)c(F)c(F)c2F)c(F)c1F,T/C,[5],97 % of control
same,T/C,[6],100 % of control
same,T/C,[7],98 % of control
CC(C)=CCC(O)C1=CC(=O)c2c(O)ccc(O)c2C1=O (stereo not given),T/C,"endpoint: mean survival time, dose: 7.5 mg/kg/injection, schedule: Q04DX003 (ip), vehicle: saline sonified",98 % of control
same,T/C,"endpoint: mean survival time, dose: 15.0 mg/kg/injection, schedule: Q04DX003 (ip), vehicle: saline sonified",102 % of control
same,T/C,"endpoint: mean survival time, dose: 30.0 mg/kg/injection, schedule: Q04DX003 (ip), vehicle: saline sonified",101 % of control
CCCCCCCCCCCCCCCc1cc(O)ccc1[N+](=O)[O-],T/C,[5],111 % of control
same,T/C,[6],115 % of control
same,T/C,[7],96 % of control
O=C(O)Cc1ccc(O)cc1,T/C,[2],101 % of control
same,T/C,[3],101 % of control
same,T/C,[4],108 % of control
OCC1OC(n2ccc3c2ncn2cnnc32)C(O)C1O (stereo not given),T/C,"endpoint: mean survival time, dose: 6.25 mg/kg/injection, schedule: Q01DX005 (ip), vehicle: water",104 % of control
same,T/C,"endpoint: mean survival time, dose: 12.5 mg/kg/injection, schedule: Q01DX005 (ip), vehicle: water",103 % of control
same,T/C,"endpoint: mean survival time, dose: 25.0 mg/kg/injection, schedule: Q01DX005 (ip), vehicle: water",92 % of control
same,T/C,"endpoint: mean survival time, dose: 50.0 mg/kg/injection, schedule: Q01DX005 (ip), vehicle: water",92 % of control
same,T/C,"endpoint: mean survival time, dose: 100.0 mg/kg/injection, schedule: Q01DX005 (ip), vehicle: water",92 % of control
same,T/C,"endpoint: mean survival time, dose: 200.0 mg/kg/injection, schedule: Q01DX005 (ip), vehicle: water",89 % of control
same,T/C,"endpoint: mean survival time, dose: 400.0 mg/kg/injection, schedule: Q01DX005 (ip), vehicle: water",95 % of control
